SMILES strings stand for the structures. Several values for one entry are separate records, joined by “and”; a condition that tells them apart may be missing. Identical values can stand only once. Counter-ions that a name gives are not always drawn. Like-named read-outs stand apart in the source and are kept apart here. A value given as a limit tells only on which side of the number the result lay.

The results in this text go back to patent US20230310435A1, “HOST DEFENSE PROTEIN (HDP) MIMETICS FOR PROPHYLAXIS AND/OR TREATMENT OF INFLAMMATORY DISEASES OF THE GASTROINTESTINAL TRACT” (priority 2015, published 2023).

Data set [1] deals with human PDE3A (Homo sapiens, UniProt Q14432). Put plainly: PDE-Glo phosphodiesterase assay, PDE3. The format is biochemical. The note with it: 2.75 ng PDE3A, 1 μM cAMP substrate, 15 min pre-incubation; read-out: IC50, inhibition of PDE3. As for the experimental part:
Method for FIG. 3. […] The compounds and PDE3A were mixed and pre-incubated at room temperature for 15 minutes. Substrate was added and the reaction was incubated for 7 minutes at room temperature. Data are presented as luminescence units (RLU).
Method for FIG. 4. Phosphodiesterase inhibition assays of PDE3 were performed using PMX-60056. The PDE-Glo phosphodiesterase assay (Promega, Madison, WI, USA Catalog No. V1361) was performed according to manufacturer's instruction using 2.75 ng of PDE3A, 1 μM cAMP substrate and PMX60056. The compounds and PDE3A were mixed and pre-incubated at room temperature for 15 minutes. Substrate was added and the reaction was incubated for 7 minutes at room temperature. Data are presented as luminescence units (RLU).
The compounds and PDE3A were mixed and pre-incubated at room temperature for 15 minutes. Substrate was added and the reaction was incubated. […]
PDE4 and PDE3 inhibition results in subsequent down-regulation of pro-inflammatory cytokines/chemokines and its regulators, and experiments were conducted to confirm such down-regulation by brilacidin in ex vivo cell-based assays. In these assays, cells were exposed to brilacidin 45 minutes before an 8-hour lipopolysaccharide (LPS) stimulation in the presence of brilacidin; cytokine/enzyme concentrations were determined by ELISA using a standard immunoassay kit.

In data set [2] the test system is Ulcerative Proctosigmoiditis/Ulcerative Proctitis (UP/UPS). Put plainly: Phase 2 clinical trial CTIX-BRI-206 in Ulcerative Proctitis/Ulcerative Proctosigmoiditis. The format is in vivo, human. As for the experimental part: In a Phase 2 study (CTIX-BRI-206), clinical remission (with Endoscopic response) was achieved after 6 weeks of treatment in >50% subjects in each treatment cohort (50 mg, 100 mg, and 200 mg brilacidin, as daily retention enema) (FIG. 21, Panel A). Inflammatory biomarkers IL-1β and IL-6 were reduced in colonic tissue biopsies collected at Week 6 (Day 42) compared to those biopsies collected at baseline (FIG. 21, Panel B).

Data set [3] can be described thus: Plasma pharmacokinetics after IV or PO administration (Study 16009-12001). In kind it is in vivo, male Balb/c mice. The conditions noted are these: male mice; for Cmax: read-out: Cmax (peak concentration). The source says:
Method for FIG. 11. […] The test article, PMX-30063, was corrected for salt form but no adjustment was made for purity. […] The resulting formulation was clear colorless solution (pH 7) and was stored at room temperature until administered. The formulated solution was clear and colorless until dosing was completed.
A total of 60 male Balb/c mice, approximately 4-7 weeks of age at receipt with body weight of 18.0 g to 21.9 g were used in this study.
Three mice in each group were used for blood at each time point at post-dose at 5 minutes, 15 minutes, 30 minutes, 1, 2, 4, 8, and 24 hours for Groups 1-2. Blood samples (at least 300 μL/sample) were collected via cardiac puncture after euthanasia by carbon dioxide inhalation at appropriate time points. Samples were placed in tubes containing K2-EDTA, and then centrifuged at approximately 8,000 rpm for 6 minutes at 4° C. and the resulting plasma were separated and stored frozen at approximately −80° C.
The pharmacokinetic (PK) analysis were conducted by Medicilon Preclinical Research (Shanghai) LLC. The PK parameters were determined by the Study Director for the test article from mean concentration-time data in the test species. A non-compartmental module of WinNonlin™ Professional 5.2 was used to calculate parameters. Any BLQs (LLOQ=2.5 ng/mL for plasma and LLOQ=500 ng/g for small intestine) were replaced with a value of “0”, and the mean value and its standard deviation (SD) are calculated with these replaced values.
Plasma samples (50 μL) were transferred to centrifuge tube, then 250 μL IS solution (50 ng/mL Carvedilol) was added to it. After vortexing for 1 minute and centrifuging for 5 minutes at 15,000 rpm, 100 μL aliquots of supernatant were transferred to glass autosampler vials.

Sequence of human PDE3A (Q14432 whole entry): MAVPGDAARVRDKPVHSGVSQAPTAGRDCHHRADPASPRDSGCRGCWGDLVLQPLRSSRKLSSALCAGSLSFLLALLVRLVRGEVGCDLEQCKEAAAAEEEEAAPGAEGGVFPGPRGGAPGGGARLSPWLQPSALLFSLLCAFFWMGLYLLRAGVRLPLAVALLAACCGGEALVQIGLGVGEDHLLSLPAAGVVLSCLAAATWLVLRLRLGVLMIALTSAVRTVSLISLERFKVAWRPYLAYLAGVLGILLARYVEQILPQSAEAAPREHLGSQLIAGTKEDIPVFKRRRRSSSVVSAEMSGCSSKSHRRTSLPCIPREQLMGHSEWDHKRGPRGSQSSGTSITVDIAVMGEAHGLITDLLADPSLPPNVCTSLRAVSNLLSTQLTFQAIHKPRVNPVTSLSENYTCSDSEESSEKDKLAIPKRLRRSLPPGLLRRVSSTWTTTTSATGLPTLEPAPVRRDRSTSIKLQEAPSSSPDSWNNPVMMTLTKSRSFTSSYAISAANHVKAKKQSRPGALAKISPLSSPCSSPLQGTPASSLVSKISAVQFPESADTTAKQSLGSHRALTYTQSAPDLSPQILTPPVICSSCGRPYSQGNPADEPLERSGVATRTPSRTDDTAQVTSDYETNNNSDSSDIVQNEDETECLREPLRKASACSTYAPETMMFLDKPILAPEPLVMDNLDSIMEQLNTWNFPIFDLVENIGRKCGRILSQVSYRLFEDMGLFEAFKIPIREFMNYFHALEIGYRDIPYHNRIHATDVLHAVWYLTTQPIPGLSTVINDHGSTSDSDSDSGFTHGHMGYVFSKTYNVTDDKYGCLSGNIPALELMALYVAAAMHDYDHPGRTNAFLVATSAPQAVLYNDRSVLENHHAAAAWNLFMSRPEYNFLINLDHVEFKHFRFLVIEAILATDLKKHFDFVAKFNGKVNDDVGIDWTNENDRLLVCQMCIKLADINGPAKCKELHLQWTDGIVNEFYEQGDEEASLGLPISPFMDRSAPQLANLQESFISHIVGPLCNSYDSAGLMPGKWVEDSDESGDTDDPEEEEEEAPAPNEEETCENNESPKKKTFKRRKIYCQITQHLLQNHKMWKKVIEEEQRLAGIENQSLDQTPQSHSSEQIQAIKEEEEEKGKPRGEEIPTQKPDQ

Regarding `N=C(N)NCCCCC(=O)Nc1cc(C(F)(F)F)cc(NC(=O)c2cc(C(=O)Nc3cc(C(F)(F)F)cc(NC(=O)CCCCNC(=N)N)c3O[C@@H]3CCNC3)ncn2)c1O[C@@H]1CCNC1` [PMX-30063, N^4,N^6-bis(2-((R)-pyrrolidin-3-yloxy)-3-((4-carbamoylbutyl)guanidine)-5-(trifluoromethyl)phenyl)pyrimidine-4,6-dicarboxamide tetrahydrochloride salt], the IC50 in data set [1] is ~1.8 µM and 1.8 µM. Moreover, in data set [2] (Week 6 (Day 42)), the “IL-1β in colonic tissue biopsies vs baseline (in words)” value is “reduced” and the “IL-6 in colonic tissue biopsies vs baseline (in words)” value is reported as “reduced”. Also, the “subjects achieving clinical remission (with Endoscopic response)” value in data set [2] (after 6 weeks, each cohort (50 mg, 100 mg, 200 mg, daily retention enema)) is over 50%. In data set [3] (Balb/c, mouse, IV 5 mg/kg), the AUC(0-inf) was found to be 97800 ng·h/mL, the AUC(0-t) is 97700 ng·h/mL, the time of peak concentration (Tmax) is 0.083 h and the clearance was 0.852 mL/min/kg. Besides, in data set [3] (Balb/c, mouse, IV 5 mg/kg), the half-life is 2.76 h and the Cmax turned out to be 48400 ng/mL. Moreover, in data set [3] (Balb/c, mouse, IV 5 mg/kg, read-out: Vz), the Vd was 0.204 L/kg. Moreover, in data set [3] (Balb/c, mouse, PO 10 mg/kg), the AUC(0-inf) is 113 ng·h/mL, the AUC(0-t) amounted to 111 ng·h/mL, the Tmax came out at 2 h and the half-life was 1.26 h. Besides, the Cmax in data set [3] (Balb/c, mouse, PO 10 mg/kg) came out at 33.7 ± 8.56 ng/mL. Moreover, the “MRT(0-∞)” value in data set [3] (IV 5 mg/kg) is 2.86 H. In data set [3] (PO 10 mg/kg vs IV 5 mg/kg), the “F*” value was 0.0579%. In data set [3] (PO 10 mg/kg), the “MRT(0-∞)” value was 2.68 H.

The term IC50 denotes the midpoint of a concentration-inhibition curve. Broadly, the AUC(0-inf) is the area under the concentration-time curve extrapolated to infinity. Higher therefore signals high exposure. For orientation: AUC(0-t) means exposure summed from dosing to a finite time, without extrapolation to infinity. By Tmax is commonly meant the time from dosing to the highest level. In general, half-life refers to how long it takes for the measured level to halve. Low values mean fast loss, high ones slow loss.
